Assay [1] deals with Candida isolate from AIDS patient No 1. In words: Sensitivity test of Candida isolate to antifungals. In kind it is cell-based. To be noted: for sensitivity of the isolate: Candida isolate from AIDS patient No 1.
The subject of assay [2] is Candida (oral or esophageal candidiasis). Nature of the assay: Open label pilot trial of dietary xylitol intake in AIDS patients with candida mucositis. On the set-up: pain symptoms (score) / Sympt. score: scale not given here. Format: in vivo, human. The source says: An open label, pilot trial was designed to test the effect of the strategy of dietary xylitol intake in replacement of sugar in patients with candida mucositis. AIDS patients with oral or esophageal candidiasis were selected as subjects for the study because of the frequency and the severity of candida mucositis that they usually develop. Patients with AIDS were considered eligible for the test after their oral or esophageal lesions were documented by microscopic examination of scrapings to be of Candida origin. They were free to continue on any antifungal therapy they might be receiving. Instructions were given to replace the saccharose that they normally take with coffee or tea for crystalline xylitol. Also, to avoid excess sweets like ice cream, cakes. cookies, and artificially flavored drinks that contain glucose. The following was done at baseline and thereafter every 7 days: 1. Pictures of the lesions 2. Tongue imprints in Sabouraud agar 3. Quantitative Candida cultures on unstimulated saliva (CFU/ml) 4. Pain questionnaire (numerical pain scale) 5. Weight 6. Patients kept a daily record of food and drink.

For a further assay, the system named is salivary Candida. The conditions noted are these: diet of human test group during 8 months; cited from earlier work.
The subject of assay [3] is Candida (recurrent oral candidiasis). In words: Pilot study of xylitol replacing dietary saccharose in patients with recurrent oral candidiasis. Format: in vivo, human. The source says: A pilot study was designed to test the effect of xylitol on the clinical course, Candida salivary counts, and antifungal needs of patients with recurrent oral candidiasis. The patients were instructed to replace their dietary saccharose with crystalline xylitol and to avoid excess saccharose-containing-foods and beverages.
Of 14 patients admitted to the test, 8 completed more than 14 days of follow up. The result was that all 8/8 experienced at least 70% regression of their lesions (improvement) with minimal antifungal therapy (1 nystatin tablet 500,000 U/per day); 5/8 had complete regression of the lesions (cure); and 6/8 decreased their salivary Candida counts by 2 logs.

Assay [4] relates to Candida isolate from AIDS patient No 1. Nature of the assay: Growth of Candida isolate on Muller Hinton agar with sugar or sugar alcohol. Format: cell-based. To be noted: 5 and 10%, FIG. 1. The method, then: The effect of sugar alcohols on the growth of said Candida isolate was tested on Muller Hinton agar with 5 and 10% glucose or 5 and 10% xylitol and a control without sugar.

The next assay deals with Candida albicans. In words: Growth in vitro of Candida albicans in Muller Hinton broth with sweeteners (optical density 650 nm). In kind it is cell-based. To be noted: 10% concentration, 12 strains. The source says:
A test was designed to determine the effect on the growth in vitro of Candida albicans of xylitol, lactitol, sorbitol and aspartame in comparison to glucose and a non-carbohydrate control medium. The tested substances have all been used in the food industry as sweeteners. The sweetness of the substances in the above order is respectively 100%, 40%, 60% and 20.000% of the sweetness of glucose.
12 strains of Candida albicans obtained from patients with AIDS and oral candida mucositis were evaluated. The strains were inoculated on Sabouraud agar plates (20% dextrose) and incubated at room temperature for 48 hours. One colony from each plate was inoculated in Muller Hinton broth (without sweetener) and left for 18 hours at 35° C. The tubes were standardized to Mac Farland 0.5 (5×10^6 CFU/ml) and 100 μl inoculated in triplicate in spectrophotometer tubes containing 3 ml of Muller Hinton broth at final concentrations of glucose (5% and 10%); xylitol (5% and 10%); lactitol (5%, 8.3% and 10%); sorbitol (5%, 10% and 12.5%); and aspartame (0.025% and 0.05%). 3 tubes with Muller Hinton broth without carbohydrate was also inoculated to serve as controls.
Optical densities (650 nm) were determined at 0, 24 and 48 hours time. The average of three readings per time, per sweetener concentration was calculated and recorded. […]

A further assay has as its system Candida. The conditions noted are these: cited from earlier work.

Here are results for five molecules from US6414035B1, “Use of polyols in combating yeast infection and polyol preparations for said use” (priority 1997, dated 2002).

Marks after values point to notes of the source that are not given here. Bounds are passed on as bounds.

As for `C[C@@H]1[C@H](O)[C@@H](C)/C=C/C=C/C=C/C=C/C=C/C=C/C=C/[C@H](O[C@@H]2O[C@H](C)[C@@H](O)[C@H](N)[C@@H]2O)C[C@@H]2O[C@](O)(C[C@@H](O)C[C@@H](O)[C@H](O)CC[C@@H](O)C[C@@H](O)CC(=O)O[C@H]1C)C[C@H](O)[C@H]2C(=O)O` [Amphotericin B], in assay [1], the “sensitivity of the isolate” value is “sensitive”.
What is called MIC is the lowest concentration found to suppress growth. `OC(Cn1cncn1)(Cn1cncn1)c1ccc(F)cc1F` [Fluconazole]: the follow up esophagoscopy result in assay [2] (AIDS patient No 2, a month later, fluconazole p.o. for 15 days during xylitol trial) is given as “no lesions”. The molecule also had a minimal inhibitory concentration (MIC) in assay [1] (Candida) of over 256 µg/mL. The “sensitivity of the isolate” value in assay [1] is “resistant”.
With `O=C(CO)[C@@H](O)[C@H](O)[C@H](O)CO` [fructose], the “number of persons with salivary Candida growth” value (from here on “number of persons”) in the assay with salivary Candida was “slight increase”.
`OC[C@H]1O[C@@](CO)(O[C@H]2O[C@H](CO)[C@@H](O)[C@H](O)[C@H]2O)[C@@H](O)[C@@H]1O` [sucrose]: the “number of persons” value with salivary Candida is “slight increase”.
As for `OC[C@@H](O)[C@H](O)[C@@H](O)CO` [xylitol], the “lesions and fungal cultures after 4 months of xylitol intake” value in assay [3] (1 patient, previously fluconazole resistant isolate (E test)) was “without lesions and sterile fungal cultures”. In addition, the “patients who decreased their salivary Candida counts by 2 logs” value in assay [3] (more than 14 days follow up) is reported as 6/8. Also, the “patients with complete regression of the lesions (cure)” value in assay [3] (more than 14 days follow up) is listed as 5/8. In assay [3] (more than 14 days follow up, with minimal antifungal therapy (1 nystatin tablet 500,000 U/per day)), the “patients with at least 70% regression of their lesions (improvement)” value is recorded as 8/8. Further, the “time to return to baseline after returning to saccharose intake” value in assay [3] (three patients) was determined as 3 days. Besides, the esophageal lesions entry in assay [2] (AIDS patient No 2, Candida esophagitis, two weeks after start of xylitol intake, no antifungal therapy) was “unchanged lesions”. Further, the Sympt. score was 18 in assay [2] (AIDS patient No 2, day 1); 0 in assay [2] (AIDS patient No 2, day 7); 0 in assay [2] (AIDS patient No 2, day 15); 0 in assay [2] (AIDS patient No 2, day 22); 0 in assay [2] (AIDS patient No 2, day 29); 0 in assay [2] (AIDS patient No 2, day 36). Besides, the Sympt. score in assay [2] (AIDS patient No 2, day 50) was 0; in assay [2] (AIDS patient No. 1, day 1) it was 18; in assay [2] (AIDS patient No. 1, day 8), 0; in assay [2] (AIDS patient No. 1, day 18) it was 0; in assay [2] (AIDS patient No. 1, day 29), 0; in assay [2] (AIDS patient No. 1, day 36) it was 0. Also, the Sympt. score in assay [2] (AIDS patient No. 1, day 56) is recorded as 0; in assay [2] (AIDS patient No. 1, day 80) it was 0. The Weight was 58,5 Kg in assay [2] (AIDS patient No 2, day 1); 58,5 Kg in assay [2] (AIDS patient No 2, day 7); 58,5 Kg in assay [2] (AIDS patient No 2, day 15); 57,5 Kg in assay [2] (AIDS patient No 2, day 22); 57,2 Kg in assay [2] (AIDS patient No 2, day 29); 57,7 Kg in assay [2] (AIDS patient No 2, day 36). In addition, the Weight in assay [2] (AIDS patient No 2, day 50) was 56,9 Kg; in assay [2] (AIDS patient No. 1, day 1), 62 kg; in assay [2] (AIDS patient No. 1, day 8) it was 62.6 kg; in assay [2] (AIDS patient No. 1, day 18), 73.4 kg; in assay [2] (AIDS patient No. 1, day 29) it was 73 kg; in assay [2] (AIDS patient No. 1, day 36), 74.8 kg. The Weight stood at 75 kg in assay [2] (AIDS patient No. 1, day 56) and 75.1 kg in assay [2] (AIDS patient No. 1, day 80). Further, the CFU/ml saliva is 0 CFU/ml in assay [2] (AIDS patient No 2, day 7); 3,6 × 10^3** CFU/ml in assay [2] (AIDS patient No 2, day 15, counted at 72 hours); 4,5 × 10^2** CFU/ml in assay [2] (AIDS patient No 2, day 22, counted at 72 hours, fluconazole p.o. started after two weeks); 0 CFU/ml in assay [2] (AIDS patient No 2, day 29, fluconazole p.o. started after two weeks); 0 CFU/ml in assay [2] (AIDS patient No 2, day 36, fluconazole p.o. 15 days given after two weeks); 0 CFU/ml in assay [2] (AIDS patient No 2, day 50, fluconazole p.o. 15 days given after two weeks). For the same molecule, in assay [2] (AIDS patient No. 1, about 30 g crystalline xylitol daily), the symptom-free follow-up period came out at 80 days. The Candida counts entry in assay [2] (AIDS patient No. 1, after 2.5 months) is reported as “still negative”; in assay [2] (AIDS patient No. 1, day seven) it was “negative”. In addition, the CFU/mL saliva is 1×10^4 CFU/mL in assay [2] (AIDS patient No. 1, day 1, counted at 48 hours); 0** CFU/mL in assay [2] (AIDS patient No. 1, day 8, plates held for 7 days); 0** CFU/mL in assay [2] (AIDS patient No. 1, day 18, plates held for 7 days); 0** CFU/mL in assay [2] (AIDS patient No. 1, day 29, plates held for 7 days); 0** CFU/mL in assay [2] (AIDS patient No. 1, day 36, plates held for 7 days); 0** CFU/mL in assay [2] (AIDS patient No. 1, day 56, plates held for 7 days). Moreover, the CFU/mL saliva in assay [2] (AIDS patient No. 1, day 80, plates held for 7 days) was 0** CFU/mL. Besides, in assay [2] (AIDS patient No. 1, follow-up of 80 days), the weight gained was determined as 13.1 kilograms. The “time to disappearance of the lesions” value in assay [2] (AIDS patient No. 1, ketoconazole discontinued on day four) worked out at 1 week. Also, in assay [2] (AIDS patient No. 1, on ketoconazole until day four), the “improvement noticed by the patient” value is recorded as “clear improvement on day four”. In assay [2] (AIDS patient No. 3), the “time to recurrence of oral candidiasis after stopping the xylitol trial” value was 4 days. Further, the “pain symptoms (score)” value in assay [2] (AIDS patient No. 3, at start) was determined as 30; in assay [2] (AIDS patient No. 3, in the first 17 days, 1 nystatin troche during the first five days), 8. Besides, the saliva counts result in assay [2] (AIDS patient No. 3, first 17 days) is listed as “diminished”. Also, in assay [4], the “growth of Candida isolate compared to control without sugar” value is given as “inhibited in a dose dependent way”. The “rank among tested compounds at reducing the growth of Candida in vitro” value with Candida albicans is listed as “by far the best”. Also, the “number of persons” value with salivary Candida is reported as “significantly reduced”. The “Candida growth and invasion compared to controls” value in the assay on Candida (given instead of glucose) is on record as “did not increase”. The “invasion of gastrointestinal mucosa by Candida relative to mice receiving glucose” value with Candida (immunocompromised mice) is “five times less”. In addition, the “scores of invasion versus control mice receiving no sugar” value in the assay with Candida (immunocompromised mice) was “not significantly different”.
